Reference: PMC7766697, “Toxicological Screening of Four Bioactive Citroflavonoids: In Vitro, In Vivo, and In Silico Approaches” (Molecules, 2020)
Where two headings read alike, the source gives them in different places.

Columns and labels:
panel of five cell lines = test system: panel of five cell lines; set-up: method as in PMID 28662177; conditions: 5–50 µg/mL; cited from earlier work
Wistar rats [1] = assay: Acute oral toxicity, OECD Test No. 423 (mortality, signs, LD50, body weight); assay type: in vivo; conditions: oral, 14 days
Description: Female Wistar rats (250 g b.w.) were used. These animals were obtained from Bioterium from División de Ciencias de la Salud at the Universidad de Quintana Roo. They were maintained under standard environmental conditions (22 ± 3 °C, 12 h/12 h light/dark cycle), and free access to standard rodent diet and water ad libitum. All animal procedures were conducted under our Federal Regulations for Animal Experimentation and Care and were approved by the Institutional Animal Care and Use Committee of the “Universidad Juárez Autónoma de Tabasco” university (Code:2017-001, Approved: October 2017). Rats were acclimatized for 1 week before the start of experimental procedures.
The half lethal dose (LD50) was estimated using the fixed-dose method described in OECD Guidelines for the Testing of Chemicals (Test No. 423: Acute Oral Toxicity-Class Method; OECD, 2001). […] This method allowed a step-by-step assay according to the chosen dose to begin the experiment. Subsequently, depending on the presence or absence of mortality, the decision to continue within the next step is taken, so fewer experimental animals should be used.
(§1) Rats used for this experiment were fasted for 8 h and were organized into two groups of three rats for each dose and each flavonoid. Likewise, the control group received isotonic 0.9% sodium chloride solution (dose: 5 mL/kg). All rats were closely observed for toxic symptoms and behavioral changes (sedation, hyperactivity, writhing, pruritus, feeding and drinking habits, general morphological changes, and bite legs) for 30 min and periodically 24 h post-administration. Animals were observed daily (14 days) and mortality rate recorded. A LD50 was estimated according to criteria of OECD guide 423.
The rats’ body weight in each group was determined and recorded before the treatment initiation and after 14 days. Changes in the body weight at the end of the 14 days were calculated. Once observation time was completed and to detect any adverse effect, blood samples were collected by cardiac puncture after the previous fasting of 8 h. […] In addition, organ weight was determined.

Wistar rats [2] = assay type: in vivo; conditions: rat, in vivo, po
Description: as §1
The rats’ body weight in each group was determined and recorded before the treatment initiation and after 14 days. Changes in the body weight at the end of the 14 days were calculated. Once observation time was completed and to detect any adverse effect, blood samples were collected by cardiac puncture after the previous fasting of 8 h. For this purpose, rats were anesthetized by intraperitoneally 50 mg/kg sodium pentobarbital. The liver was carefully extracted, rinsed in normal saline, drained on blotting paper, and carefully examined for tissue lesions. In addition, organ weight was determined.
Rat blood samples were analyzed by a hematology auto-analyzer system (Sysmex XS-1000i®, SYSMEX®, Oak Ridge, TN, USA). The parameters quantified on this stage were: blood count-packed cell volume (PCV), red blood cell (RBC) count, hemoglobin (Hb), platelet count, white blood cell (WBC) count, mean cell hemoglobin concentration (MCHC), mean red cell volume (MCV), mean cell hemoglobin (MCH), prothrombin time (PT), and activated partial thromboplastin time (aPTT).

MDCK cells = assay: MTT-based cytotoxicity assay in MDCK cells; assay type: cell-based, Canine; conditions: 48 h, 125 to 750 µg/mL (QRT effect at 250 and 500 µg/mL)
Description: (§2) VERO and MDCK cell lines were acquired from American Type Culture Collection (ATCC, Manassas, VA, USA). […] In vitro cytotoxicity assay was performed on Madin-Darby Canine Kidney Epithelial Cells (MDCK) and green Monkey Kidney Cells (VERO) by MTT-based assay. Briefly, cells were seeded in 96-well plates at a density of 2.5 × 10^3 cells/well. […] The absorbance was measured after 45 min using a microplate reader (Multiskan Asent®) at a wavelength of 550 nm. The criteria for categorizing cytotoxicity against MDCK and VERO cells are based on the U.S. National Cancer Institute (NCI). The criteria comprise as follow: […] All results were expressed as mean ± standard error. The results from the in vivo and in vitro experiments were analyzed using software Origin® 8.0. […] The IC50 (half inhibitory concentration) values were calculated in Origin software®, (Northampton, MA, USA) and one-way ANOVA analysis was compared with cisplatin as the control.

Wistar rats [3] = conditions: for ALB (albumin) / ALT / AST / DB (direct bilirubin) / GL (globulin) / GLU (glucose) / IB (indirect bilirubin) / TB (total bilirubin) / TP (total protein): rat, in vivo, po; for ALB/GL Ratio: rats, after 14 days, plasma
VERO cells = assay: MTT-based cytotoxicity assay in VERO cells; assay type: cell-based, green Monkey; conditions: 48 h, 125 to 750 µg/mL (QRT effect at 250–750 µg/mL)
Description: as §2

For `C[C@@H]1O[C@@H](O[C@H]2[C@H](Oc3cc(O)c4c(c3)O[C@H](c3ccc(O)cc3)CC4=O)O[C@H](CO)[C@@H](O)[C@@H]2O)[C@H](O)[C@H](O)[C@H]1O` [NAR, naringin], the “cytotoxicity (mitochondrial membrane potential, cell membrane integrity, nuclear morphology)” value (panel of five cell lines) is listed as “not cytotoxic”, the “weight gain / body weight vs control” value (Wistar rats [1]) is listed as “changed the body weight” and the Erythrocytes (Wistar rats [2]; 300 mg/kg) is listed as 7.79±0.27 106/µL. The Hb (Wistar rats [2]; 300 mg/kg) was 14.03 ± 0.38 g/dL, the Hto (Wistar rats [2]; 300 mg/kg) was 40.63±1.03% and the Leukocytes (Wistar rats [2]; 300 mg/kg) was 2.65±0.30 103/µL. The MCH (Wistar rats [2]; 300 mg/kg) was 18.03 ± 0.16 pg, the MCV (Wistar rats [2]; 300 mg/kg) was 54.40 ± 1.92 fL and the Platelets (Wistar rats [2]; 300 mg/kg) was 726.00±12.26 105/µL. For the same compound, the RBCDW (Wistar rats [2]; 300 mg/kg) was 16.16±0.58%, the Erythrocytes (Wistar rats [2]; 2000 mg/kg) was 7.41±0.11 106/µL and the Hb (Wistar rats [2]; 2000 mg/kg) was 13.67 ± 0.16 g/dL. The Hto (Wistar rats [2]; 2000 mg/kg) was 40.66±0.39%, the Leukocytes (Wistar rats [2]; 2000 mg/kg) was 4.45±0.98 103/µL and the MCH (Wistar rats [2]; 2000 mg/kg) was 18.43 ± 0.05 pg. The MCHC (Wistar rats [2]; 2000 mg/kg) was 33.50 ± 0.14 g/dL, the MCV (Wistar rats [2]; 2000 mg/kg) was 54.86 ± 0.38 fL and the Platelets (Wistar rats [2]; 2000 mg/kg) was 553.00±239.61 105/µL. For the same compound, the RBCDW (Wistar rats [2]; 2000 mg/kg) was 15.80±0.12%, the “percentage viability / growth of cells” value (MDCK cells) was “did not change the percentage of growth” and the “ALB (albumin)” value (Wistar rats [3]; 300 mg/kg) was 4.50 ± 0.02 g/dL. The ALT (Wistar rats [3]; 300 mg/kg) was 27.57 ± 0.62 IU/L, the AST (Wistar rats [3]; 300 mg/kg) was 144.58 ± 17.05 IU/L and the “DB (direct bilirubin)” value (Wistar rats [3]; 300 mg/kg) was 0.012 ± 0.0009 mg/dL. For the same compound, the “GL (globulin)” value (Wistar rats [3]; 300 mg/kg) was 1.97 ± 0.04 g/dL, the “GLU (glucose)” value (Wistar rats [3]; 300 mg/kg) was 125.54 ± 14.59 mg/dL and the “IB (indirect bilirubin)” value (Wistar rats [3]; 300 mg/kg) was 0.024 ± 0.0007 mg/dL. The “TB (total bilirubin)” value (Wistar rats [3]; 300 mg/kg) was 0.037 ± 0.001 mg/dL, the “TP (total protein)” value (Wistar rats [3]; 300 mg/kg) was 6.48 ± 0.04 g/dL and the “ALB (albumin)” value (Wistar rats [3]; 2000 mg/kg) was 4.66 ± 0.16 g/dL. For the same compound, the ALT (Wistar rats [3]; 2000 mg/kg) was 38.59 ± 1.08 IU/L, the AST (Wistar rats [3]; 2000 mg/kg) was 128.26 ± 5.33 IU/L and the “DB (direct bilirubin)” value (Wistar rats [3]; 2000 mg/kg) was 0.015 ± 0.001 mg/dL. The “GL (globulin)” value (Wistar rats [3]; 2000 mg/kg) was 2.03 ± 0.05 g/dL, the “GLU (glucose)” value (Wistar rats [3]; 2000 mg/kg) was 138.55 ± 10.48 mg/dL and the “IB (indirect bilirubin)” value (Wistar rats [3]; 2000 mg/kg) was 0.025 ± 0.003 mg/dL. For the same compound, the “TB (total bilirubin)” value (Wistar rats [3]; 2000 mg/kg) was 0.039 ± 0.004 mg/dL, the “TP (total protein)” value (Wistar rats [3]; 2000 mg/kg) was 6.71 ± 0.14 g/dL and the “ALB/GL Ratio” value (Wistar rats [3]; oral 300 mg/kg) was 2.30 ± 0.05. For the same compound, the “ALB/GL Ratio” value (Wistar rats [3]; oral 2000 mg/kg) was 2.32 ± 0.12 and the “percentage viability / growth of cells” value (VERO cells) was “did not change the percentage of growth”.
